Source: patent publication EP0497299A1, “Decarestrictine and related compounds, process for their preparation and use” (HOECHST AKTIENGESELLSCHAFT, priority 1991, dated 1992)

Tested on: Cholesterinbiosynthese
Assay: Inhibition of cholesterol biosynthesis from 14C-acetate in HEP-G2 liver cell culture
Type: cell-based
Settings: Homo sapiens, HepG2, 3 h, HEP-G2-Zellen; for IC50: (¹⁴C)Natriumacetat, standard preparations, read-out: IC₅₀; for inhibition at 0.01 µM: Konzentration von 10⁻⁸ mol/l, read-out: Hemmung der Cholesterinbiosynthese
Source text: 2. Die biologische Wirksamkeit der Verbindungen als Inhibitor an der Cholesterinbiosynthese läßt sich in vitro in Leberzellkulturen nachweisen.
Monolayer von HEP-G2-Zellen in lipoproteinfreiem Nährmedium werden mit entsprechenden Konzentrationen der zu prüfenden Substanzen der allgemeinen Formel I eine Stunde vorinkubiert. Nach Zugabe der ¹⁴C-markierten Biosynthesevorstufe (¹⁴C)Natriumacetat wird die Inkubation für 3 Stunden fortgesetzt. Danach wird ein Teil der Zellen alkalisch verseift, bei vorheriger Zugabe eines internen Standards von ³H-Cholesterin. Die Lipide der verseiften Zellen werden mit einem Gemisch aus Chloroform-Methanol extrahiert. Dieses Lipidgemisch wird nach Zusatz von Trägercholesterin präparativ dünnschichtchromatographisch aufgetrennt, die Cholesterinbande nach Anfärbung isoliert und die aus dem ¹⁴C-Precursor gebildete Menge ¹⁴C-Cholesterin szintigraphisch bestimmt. In einem aliquoten Teil der Zellen wurde Zellprotein bestimmt, so daß die in der Zelleinheit pro mg Zellprotein aus ¹⁴C-Präkusor gebildete Menge ¹⁴C-Cholesterins berechnet werden kann. Zum Vergleich für die Hemmwirkung eines zugesetzten Prüfpräparates dient die Kontrolle, so daß direkt die Hemmung der Cholesterinbiosynthese bei einer bestimmten molaren Konzentration des Prüfpräparates im Medium angegeben werden kann. In aliquoten Anteilen der Zellkultur wird die Intaktheit der Zellkultur und die fehlende Zellschädigung durch Präparateeinwirkung morphologisch (Lichtmikroskopie) beurteilt und biochemisch durch Bestimmung der Lactat-Dehydrogenase-Abgabe ins Inkubationsmedium gemessen.

**Q.** How did the IC50 turn out when C[C@H](CCCC(C)(C)O)[C@H]1CC[C@H]2[C@@H]3CC=C4C[C@@H](O)CC[C@]4(C)[C@H]3CC[C@]12C [25-Hydroxycholesterin] was run?
**A.** 230 nM

**Q.** With COC(=O)CC1CC(O)C(C(O)CC(C)O)O1 (stereo not shown) [Formel 1.4] as the molecule, how does the inhibition at 0.01 µM read?
**A.** 38%

**Q.** Which inhibition at 0.01 µM does the source give for COC(=O)C=C1CC(O)C(C(O)CC(C)O)O1 (stereo not shown) [Formel 1.5] here?
**A.** 60%

**Q.** CC[C@H](C)C(=O)O[C@H]1C[C@@H](C)C=C2C=C[C@H](C)[C@H](CC[C@@H]3C[C@@H](O)CC(=O)O3)[C@H]21 [Lovastatin] was tested. Which IC50 did it give?
**A.** 23 nM
